Experiments:
Details in all cases: 72 h
Caco-2 [1] = test: cell viability relative to DMSO; higher = less toxic
Calu-3 [2] = test: as above
HepG2 [3] = test: as above
U2OS [4] = test: as above
Vero E6 [5] = test: as above
Calu-3 [6] = test: relative viability EC50 (midpoint between 100% and the lowest measured viability); higher = less toxic
U2OS [7] = test: as above
Vero E6 [8] = test: as above
Caco-2 [9] = test: drug sensitivity score (DSS) for viability; higher = more toxic; extreme values may be limits of the assay
Calu-3 [10] = test: as above
HepG2 [11] = test: as above
U2OS [12] = test: as above
Vero E6 [13] = test: as above
HepG2 [14] = test: relative viability EC50 (midpoint between 100% and the lowest measured viability); higher = less toxic

Row | SMILES | cell viability (Caco-2 [1]; 1 nM) [%] | cell viability (Caco-2 [1]; 10 nM) [%] | cell viability (Caco-2 [1]; 100 nM) [%] | cell viability (Caco-2 [1]; 1000 nM) [%] | cell viability (Caco-2 [1]; 10000 nM) [%] | cell viability (Calu-3 [2]; 1 nM) [%] | cell viability (Calu-3 [2]; 10 nM) [%] | cell viability (Calu-3 [2]; 100 nM) [%] | cell viability (Calu-3 [2]; 1000 nM) [%] | cell viability (Calu-3 [2]; 10000 nM) [%] | cell viability (HepG2 [3]; 1 nM) [%] | cell viability (HepG2 [3]; 10 nM) [%] | cell viability (HepG2 [3]; 100 nM) [%] | cell viability (HepG2 [3]; 1000 nM) [%] | cell viability (HepG2 [3]; 10000 nM) [%] | cell viability (U2OS [4]; 1 nM) [%] | cell viability (U2OS [4]; 10 nM) [%] | cell viability (U2OS [4]; 100 nM) [%] | cell viability (U2OS [4]; 1000 nM) [%] | cell viability (U2OS [4]; 10000 nM) [%] | cell viability (Vero E6 [5]; 1 nM) [%] | cell viability (Vero E6 [5]; 10 nM) [%] | cell viability (Vero E6 [5]; 100 nM) [%] | cell viability (Vero E6 [5]; 1000 nM) [%] | cell viability (Vero E6 [5]; 10000 nM) [%] | relative viability EC50 (Calu-3 [6]) [µM] | relative viability EC50 (U2OS [7]) [µM] | relative viability EC50 (Vero E6 [8]) [µM] | drug sensitivity score (Caco-2 [9]) | drug sensitivity score (Calu-3 [10]) | drug sensitivity score (HepG2 [11]) | drug sensitivity score (U2OS [12]) | drug sensitivity score (Vero E6 [13]) | relative viability EC50 (HepG2 [14]) [µM]
1 | CC(C)c1noc(N2CCC(COc3ccc(-c4ccc(S(C)(=O)=O)cc4)nc3)CC2)n1 | 92.5 | 93.5 | 101 | 95.6 | 72.5 | 96.4 | 101 | 92.4 | 94.4 | 106 | 97.1 | 106 | 109 | 97.3 | 50.9 | 99.3 | 94.1 | 97.6 | 100 | 101 | 98 | 100 | 98.8 | 89.3 | 103 | > 10 | > 10 | > 10 | 1.8 | 0 | 2.9 | 0 | 0 | 
2 | CCn1c(-c2nonc2N)nc2c(C#CC(C)(C)O)ncc(OC[C@H]3CCCNC3)c21 | 92.9 | 86.7 | 101 | 72.1 | 69.3 | 102 | 98.2 | 92.2 | 69.5 | 73.5 | 94.8 | 98.1 | 96.5 | 94.5 | 99.4 | 96.3 | 93.3 | 98.1 | 87.5 | 85.9 | 96.5 | 96 | 95.5 | 95.1 | 111 |  | > 10 | > 10 | 4.7 | 6.3 | 0 | 0.3 | 0 | > 10
3 | COc1ccc(CCCO[C@@H](Cn2ccnc2)c2ccc(OC)cc2)cc1 | 93.4 | 95 | 100 | 93.5 | 52.6 |  |  |  |  |  | 101 | 104 | 95.4 | 106 | 34 | 97.4 | 96.7 | 99.3 | 99.4 | 35.9 | 94.5 | 104 | 96.5 | 98 | 50.1 |  | 3.1 |  | 3.6 |  | 3.2 | 3.6 | 2.9 | 3.59
4 | Cc1cc(I)ccc1Nc1c(C(=O)NOCC2CC2)cc(F)c(F)c1F | 93.3 | 99.5 | 98.3 | 75 | 54.8 | 97.2 | 100 | 103 | 80.3 | 45.1 | 88.7 | 107 | 94 | 55.5 | 21.1 | 100 | 97.1 | 99.8 | 89.6 | 74.7 | 89.6 | 100 | 90.4 | 77 | 52.6 | 1.26 |  |  | 5.2 | 5.7 | 9.7 | 2.3 | 5.2 | 0.814
5 | C[C@@H]1CCCN1CCc1cc2cc(-c3ccc(C#N)cc3)ccc2o1 [ABT-239] | 86.8 | 106 | 93.4 | 97.2 | 68.1 | 95.5 | 96.1 | 106 | 111 | 58.9 | 105 | 92.9 | 94.8 | 90.9 | 75.9 | 96.3 | 101 | 97.9 | 102 | 87 | 89.8 | 94.9 | 92 | 91.2 | 91.8 |  | > 10 | > 10 | 1.9 | 1.5 | 1.4 | 0.1 | 0 | > 10
6 | COc1ccc(C(=O)c2c(C)n(CCN3CCOCC3)c3cc(I)ccc23)cc1 [AM-630] | 97.3 | 113 | 81.1 | 94.2 | 69.7 | 92.9 | 102 | 104 | 102 | 92.9 | 93.3 | 82.5 | 104 | 94.3 | 91.6 | 96.2 | 101 | 97.2 | 98.5 | 94.1 | 97.8 | 96.5 | 102 | 100 | 97 | > 10 | > 10 | > 10 | 2.1 | 0 | 0 | 0 | 0 | > 10
7 | Cc1[nH]nc(C(F)(F)F)c1Cc1sc2c(c1C(=O)N1C[C@](C)(O)CO1)c(=O)n(C)c(=O)n2C(C)C [AZD3965] | 92.9 | 79.5 | 74.9 | 72 | 76.5 | 93.6 | 101 | 101 | 103 | 107 | 99.4 | 89.2 | 99.3 | 93.3 | 101 | 99.8 | 95.3 | 89 | 92 | 89.2 | 99.8 | 97.5 | 101 | 92.9 | 97.4 | > 10 | > 10 | > 10 | 10.1 | 0 | 0 | 0.6 | 0 | > 10
8 | CCC[C@@H]1C[C@@H](C(=O)N[C@@H]([C@H]2O[C@H](SC)[C@H](OP(=O)(O)O)[C@@H](O)[C@H]2O)[C@H](C)Cl)N(C)C1 [Clindamycin phosphate] |  |  |  |  |  |  |  |  |  |  |  |  |  |  |  |  |  |  |  |  |  |  |  |  |  |  |  |  |  | 0 | 0 | 0 | 0 | 
9 | OC[C@H]1O[C@H](O[C@H]2[C@H](O)[C@@H](O)[C@H](O)O[C@@H]2CO)[C@H](O)[C@@H](O)[C@@H]1O [D-(+)-maltose] |  |  |  |  |  |  |  |  |  |  |  |  |  |  |  |  |  |  |  |  |  |  |  |  |  |  |  |  |  |  | 0 | 0 | 0 | 
10 | N[C@H](CO)C(=O)O [D-serine] |  |  |  |  |  |  |  |  |  |  |  |  |  |  |  |  |  |  |  |  |  |  |  |  |  |  |  |  |  | 0 | 0 | 0 | 0 | 
11 | Cc1cc(Nc2ncnc3ccc(-c4ccc(CNCCS(C)(=O)=O)o4)cc23)ccc1Oc1ccn2ncnc2c1 [HER2-Inhibitor-1] | 102 | 88.5 | 94.8 | 88.4 | 52.7 | 122 | 88.4 | 66.1 | 45.5 | 30.5 | 98.4 | 102 | 95.8 | 89.1 | 88.8 | 98.2 | 95.2 | 100 | 91.9 | 87.9 | 105 | 106 | 105 | 93.7 | 94.2 | 0.124 | > 10 | > 10 | 4.2 | 15 | 0.4 | 0.4 | 0 | > 10
12 | CCNC(=O)C[C@@H]1N=C(c2ccc(Cl)cc2)c2cc(OC)ccc2-n2c(C)nnc21 [I-BET-762] | 94.8 | 100 | 88.6 | 91.3 | 72.8 | 104 | 116 | 104 | 93.7 | 60.8 | 111 | 112 | 98.8 | 64.9 | 50.2 | 94.7 | 101 | 90 | 87.9 | 47.8 | 98.1 | 104 | 104 | 59.9 | 15.9 |  | 1.69 | 1.04 | 2 | 3 | 6.9 | 4.5 | 9.8 | 
13 | C=CC(=O)c1ccc2ccccc2c1 [JAK3-inhibitor-V] |  |  |  |  |  | 110 | 97.3 | 111 | 94.8 | 96.6 | 106 | 108 | 98.8 | 110 | 110 |  |  |  |  |  | 99.5 | 107 | 99.8 | 104 | 101 | > 10 |  | > 10 |  | 0 | 0 |  | 0 | > 10
14 | N#Cc1c(N)nc(SCc2ncc[nH]2)c(C#N)c1-c1ccc(O)cc1 [LUF-5834] |  |  |  |  |  |  |  |  |  |  | 102 | 115 | 103 | 105 | 98.6 |  |  |  |  |  |  |  |  |  |  |  |  |  |  |  | 0 |  |  | > 10
15 | CC1(N)CCN(c2cnc(-c3cccc(Cl)c3Cl)c(N)n2)CC1 [SHP099] | 94.1 | 113 | 90.9 | 91.9 | 56.4 | 101 | 98.3 | 104 | 82.2 | 64.7 | 91.2 | 84.8 | 103 | 93.5 | 82 | 93.8 | 95.4 | 91.9 | 98.4 | 90.2 | 103 | 93.2 | 106 | 92.2 | 78.9 |  | > 10 | > 10 | 3.6 | 3.9 | 0.2 | 0 | 1.6 | > 10
16 | CC(C)Oc1ccc(-c2nn([C@@H](C)c3oc4ccc(F)cc4c(=O)c3-c3cccc(F)c3)c3ncnc(N)c23)cc1F [TGR-1202] |  |  |  |  |  |  |  |  |  |  | 101 | 108 | 108 | 111 | 98.2 |  |  |  |  |  |  |  |  |  |  |  |  |  |  |  | 0 |  |  | > 10
17 | NC12CC3CC(CC(C3)C1)C2 [amantadine] |  |  |  |  |  |  |  |  |  |  |  |  |  |  |  |  |  |  |  |  |  |  |  |  |  |  |  |  |  | 0 | 0 | 0 | 0 | 
18 | N=C(N)NC(=O)c1nc(Cl)c(N)nc1N [amiloride] |  |  |  |  |  |  |  |  |  |  |  |  |  |  |  |  |  |  |  |  |  |  |  |  |  |  |  |  |  | 0 | 0 | 0 | 0 | 
19 | CCC[C@H]1C(=O)N2C(N(C)C)=Nc3ccc(C)cc3N2C1=O [azapropazone] |  |  |  |  |  |  |  |  |  |  |  |  |  |  |  |  |  |  |  |  |  |  |  |  |  |  |  |  |  | 0 | 0 | 0 | 0 | 
20 | OCCNC1CCCc2c1[nH]c1ccc(-c3ccccc3)cc21 (stereo not drawn) [casin] | 106 | 97.4 | 99.4 | 96.3 | 69.8 | 96.3 | 97.4 | 97.1 | 106 | 69.1 | 94.7 | 97.6 | 87.5 | 94.7 | 52.4 | 107 | 102 | 105 | 102 | 79 | 102 | 106 | 106 | 98.9 | 77.7 |  | > 10 | > 10 | 1.9 | 1.1 | 3.4 | 0.5 | 0.9 | 
21 | N.N.[Cl][Pt][Cl] [cisplatin] |  |  |  |  |  |  |  |  |  |  |  |  |  |  |  |  |  |  |  |  |  |  |  |  |  |  |  |  |  | 0.2 | 0 | 0 | 0 | 
